Experiments:
[1] = test system: Erysiphe polygoni (synonym: Erysiphe betae); assay: Test on the preventive effect against cucumber powdery mildew; type: in vivo; conditions: 216 h, test solution A 500 ppm, 5 ml per pot sprayed, cucumber cotyledon stage, 9 days after inoculation
Experimental: Compounds of the present invention were dissolved in a solvent for emulsion (a mixture of Sorpol (registered trademark) 3005XL (manufactured by Toho Chemical Industry Co., Ltd.): N-methylpyrrolidone: Solvesso (registered trademark) 200 (manufactured by ExxonMobil Chemical) in a ratio of 1:5:2) to prepare 20 wt % emulsifiable concentrates. Then, distilled water was added to dilute the emulsifiable concentrates to the prescribed concentration (500 ppm), and the obtained solutions were used in the following the Test Examples 1 to 8. Cucumber (varieties: Sagami Hanjiro) was seeded in 90 cm^3 plastic pot, and at the cotyledon stage, 5 ml per pot of test solution A of the compounds of the present invention was sprayed. After drying in air, the pot was placed in an air-conditioned greenhouse (20° C.), and a suspension of conidium of Erysiphe polygoni (synonym: Erysiphe betae) was sprayed. After the pot were replaced at the same temperature for 9 days, the proportion of the formed lesion in the inoculated leaves were counted to calculate the control value in accordance with the following formula. The test was carried out in duplicate. Control value=[1−(lesion area ratio in treated plot/lesion are a ratio in non-treated plot)]×100

Botrytis cinerea [2] = assay: Test on the preventive effect against cucumber gray mold (spore inoculation); type: in vivo; conditions: 72 h, test solution A 500 ppm, 5 ml per pot, cucumber cut leaves, conidium inoculation, 3 days at 20° C.
Experimental: Compounds of the present invention were dissolved in a solvent for emulsion (a mixture of Sorpol (registered trademark) 3005XL (manufactured by Toho Chemical Industry Co., Ltd.): N-methylpyrrolidone: Solvesso (registered trademark) 200 (manufactured by ExxonMobil Chemical) in a ratio of 1:5:2) to prepare 20 wt % emulsifiable concentrates. Then, distilled water was added to dilute the emulsifiable concentrates to the prescribed concentration (500 ppm), and the obtained solutions were used in the following the Test Examples 1 to 8. Cucumber (varieties: Sagami Hanjiro) was seeded in 90 cm^3 plastic pot, and at the cotyledon stage, 5 ml per pot of test solution A of the compounds of the present invention was applied. After drying in air, the treated leaves were cut and transferred in plastic containers. 30 μl of a mixture of a suspension of conidium of Botrytis cinerea and a dissolved PDA medium in a ratio of 1:1 was dropped on each treated leaf and inoculated. After the inoculation, the plastic containers were placed in 20° C. with humid conditions for 3 days, and the proportion of the formed lesion in the inoculated leaves were counted to calculate the control value in accordance with the same formula as in the Test Example 1. The test was carried out in duplicate.

[3] = test system: Blumeria graminis f. sp. tritici; assay: Test on the preventive effect against wheat powdery mildew; type: in vivo; conditions: 168 h, test solution A 500 ppm, 5 ml per pot, wheat 1.3-leaf stage, 7 days after inoculation
Experimental: (§1) Compounds of the present invention were dissolved in a solvent for emulsion (a mixture of Sorpol (registered trademark) 3005XL (manufactured by Toho Chemical Industry Co., Ltd.): N-methylpyrrolidone: Solvesso (registered trademark) 200 (manufactured by ExxonMobil Chemical) in a ratio of 1:5:2) to prepare 20 wt % emulsifiable concentrates. Then, distilled water was added to dilute the emulsifiable concentrates to the prescribed concentration (500 ppm), and the obtained solutions were used in the following the Test Examples 1 to 8. Wheat (varieties: Norin 61) was seeded in 90 cm^3 plastic pot, and at the 1.3-leaf stage, 5 ml per pot of test solution A of the compounds of the present invention were applied. One day after treatment, the pot was placed in an air-conditioned greenhouse (20° C.), and conidium of Blumeria graminis f. sp. tritici was inoculated to the wheat. 7 days after, the proportion of the formed lesion in the inoculated leaves were measured to calculate the control value in accordance with the same formula as in the Test Example 1. The test was carried out in duplicate.

[4] = test system: Phaeosphaeria nodorum (Synonym: Septoria nodorum); assay: Test on the preventive effect against wheat glume blotch; type: in vivo; conditions: Parastagonospora nodorum, 144 h; test solution A 500 ppm, 5 ml per pot, wheat 1.3-leaf stage, 2 days inoculation chamber then 6 days at 20° C.
Experimental: as §1, with “Wheat (varieties: Haruyutaka) was seeded” for “Wheat (varieties: Norin 61) was seeded”, “and at 1.3-leaf stage,” for “and at the 1.3-leaf stage,”, “present invention was applied. One” for “present invention were applied. One”, “after treatment, a suspension of conidium of Phaeosphaeria nodorum (Synonym: Septoria nodorum) was sprayed to the wheat, and the pot was left in the inoculation chamber at 20° C. under humidity of 100% RH for 2 days. Then, the pot” for “after treatment, the pot”, “greenhouse (20° C.) for 6 days. The proportion of” for “greenhouse (20° C.), and conidium of Blumeria graminis f. sp. tritici was inoculated to the wheat. 7 days after, the proportion of”

[5] = test system: Colletotrichum lagenarium (Synonym: Colletotrichum orbiculare); assay: Test on the preventive effect against cucumber anthracnose; type: in vivo; conditions: 168 h, 100 ppm solution (symbol *), 5 ml per pot sprayed, 2 days inoculation chamber then 7 days at 23° C.
[6] = test system: Colletotrichum lagenarium (Synonym: Colletotrichum orbiculare); assay: as above; type: in vivo; conditions: 168 h, test solution A 500 ppm, 5 ml per pot sprayed, 2 days inoculation chamber then 7 days at 23° C.
Experimental: Compounds of the present invention were dissolved in a solvent for emulsion (a mixture of Sorpol (registered trademark) 3005XL (manufactured by Toho Chemical Industry Co., Ltd.): N-methylpyrrolidone: Solvesso (registered trademark) 200 (manufactured by ExxonMobil Chemical) in a ratio of 1:5:2) to prepare 20 wt % emulsifiable concentrates. Then, distilled water was added to dilute the emulsifiable concentrates to the prescribed concentration (500 ppm), and the obtained solutions were used in the following the Test Examples 1 to 8. Cucumber (varieties: Sagami Hanjiro) was seeded in 90 cm^3 plastic pot, and at the cotyledon stage, 5 ml per pot of test solution A of the compounds of the present invention was sprayed. One day later, a suspension of conidium of Colletotrichum lagenarium (Synonym: Colletotrichum orbiculare) was sprayed, and the pot was left for 2 days in the inoculation chamber at 25° C. under humidity of 100% RH. Thereafter, the pot was placed in an air-conditioned greenhouse (23° C.) and left at the same temperature for 7 days. Thereafter, the proportion of the formed lesion in the inoculated leaves were measured to calculate the control value in accordance with the same formula as in Test Example 1. The test was carried out in duplicate.

Botrytis cinerea [7] = assay: Test on the preventive effect against cucumber gray mold (mycelium inoculation); type: in vivo; conditions: 48 h, test solution A 500 ppm, 5 ml per pot, cucumber cotyledon, agar block inoculation, 2 days at 20° C.
Experimental: Compounds of the present invention were dissolved in a solvent for emulsion (a mixture of Sorpol (registered trademark) 3005XL (manufactured by Toho Chemical Industry Co., Ltd.): N-methylpyrrolidone: Solvesso (registered trademark) 200 (manufactured by ExxonMobil Chemical) in a ratio of 1:5:2) to prepare 20 wt % emulsifiable concentrates. Then, distilled water was added to dilute the emulsifiable concentrates to the prescribed concentration (500 ppm), and the obtained solutions were used in the following the Test Examples 1 to 8. Cucumber (varieties: Sagami Hanjiro) was seeded in 90 cm^3 plastic pot, and at the cotyledon stage, 5 ml per pot of test solution A of the compounds of the present invention was applied. On the next day, the pot was transferred in a plastic container, and an agar blocks (diameter: 5 mm) containing Botrytis cinerea which was preliminarily cultivated in a PDA medium was inoculated on the cotyledon of the cucumber treated with the solution. After the inoculation, the plastic container was covered with a plastic sheet, then placed at 20° C. and humidified for 2 days. Thus the proportion of the formed lesion in the inoculated leaves were measured to calculate the control value in accordance with the same formula as in the Test Example 1. The test was carried out in duplicate.

Sclerotinia sclerotiorum = assay: Test on the preventive effect against cucumber stem rot; type: in vivo; conditions: 48 h, test solution A 500 ppm, 5 ml per pot, agar block inoculation, 2 days at 20° C.
Experimental: Compounds of the present invention were dissolved in a solvent for emulsion (a mixture of Sorpol (registered trademark) 3005XL (manufactured by Toho Chemical Industry Co., Ltd.): N-methylpyrrolidone: Solvesso (registered trademark) 200 (manufactured by ExxonMobil Chemical) in a ratio of 1:5:2) to prepare 20 wt % emulsifiable concentrates. Then, distilled water was added to dilute the emulsifiable concentrates to the prescribed concentration (500 ppm), and the obtained solutions were used in the following the Test Examples 1 to 8. Cucumber (varieties: Sagami Hanjiro) was seeded in 90 cm^3 plastic pot, and at the cotyledon stage, 5 ml per pot of test solution A of the compounds of the present invention was applied. After drying in air, the pot was transferred in a plastic container, and an agar blocks (diameter: 5 mm) containing Sclerotinia sclerotiorum which was preliminarily cultivated in a PDA medium was inoculated to the seed leaves of the cucumber treated with the solution. After the inoculation, the plastic container was covered with a plastic sheet, and placed at 20° C. and humidified for 2 days, thus the proportion of the formed lesion in the inoculated leaves were measured to calculate the control value in accordance with the same formula as in the Test Example 1. The test was carried out in duplicate.

Puccinia recondita = assay: Test on the preventive effect against wheat leaf rust; type: in vivo; conditions: 216 h, test solution A 500 ppm, 5 ml per pot, wheat 1.3-leaf stage, 1 day inoculation chamber then 8 days at 20° C.
Experimental: as §1, with “and at 1.3-leaf stage,” for “and at the 1.3-leaf stage,”, “present invention was applied. One” for “present invention were applied. One”, “after treatment, a suspension of spores of Puccinia recondita was sprayed to the wheat, and the pot was left in the inoculation chamber at 20° C. under humidity of 100% RH for 1 day. Thereafter, the pot” for “after treatment, the pot”, “greenhouse (20° C.) for 8 days. The proportion of” for “greenhouse (20° C.), and conidium of Blumeria graminis f. sp. tritici was inoculated to the wheat. 7 days after, the proportion of”, “leaves were counted to calculate” for “leaves were measured to calculate”

Asperaillus niger = assay: Test on the antifungal activity against Asperaillus niger; type: cell-based; conditions: 48 h; test solution B 100 ppm, 10 μl per well, 96 well plate, 25° C. dark, 2 days after treatment; read-out: efficacy (flora area ratio relative to non-treated well)
Experimental: Compounds of the present invention were dissolved in dimethyl sulfoxide to prepare 1 wt % solutions. Then, distilled water was added to dilute the solutions to the prescribed concentration (100 ppm), and the obtained solutions were used in the following the Test Examples 9 to 12. 60 μl of a potato dextrose 1% agar medium was added to each well of a 96 well plate, and 30 μl of sterilized water containing spores of Asperaillus niger (10 spores/3 μl) was added to each well. Further, 10 μl per well of test solution B of the compounds of the present invention was added, and the plate was left at rest at 25° C. under dark conditions. 2 days after treatment, the flora area ratio (%) was determined to calculate the efficacy (%) relative to the non-treated well in accordance with the following formula. Efficacy (%)=[1−(flora area ratio in treated plot/flora area ratio in non-treated well)]×100

SMILES | pest or weed control at 500 µg/mL (Botrytis cinerea [2]) [%] | pest or weed control at 500 µg/mL [4] [%] | melting point [°C] | other results
CCOC(=O)C(CNC(=O)c1cn(C)nc1C(F)F)(C(=O)OCC)c1ncc(C#CC2CC2)cc1Cl [8-023, 2-[3-chloro-5-(cyclopropylethynyl)pyridin-2-yl]-2-[(3-difluoromethyl-1-methyl-1H-pyrazole-4-carboxamide)methyl]malonic acid diethyl ester] | ≥ 70 | ≥ 70 | 87 to 88 | pest or weed control at 500 µg/mL [1]: ≥ 70%; pest or weed control at 500 µg/mL [3]: ≥ 70%
N#CC(C#N)(CNC(=O)c1ccccc1C(F)(F)F)c1ncc(C#CC2CC2)cc1Cl [1-023, N-[2-[3-chloro-5-(cyclopropylethynyl)pyridin-2-yl]-2,2-dicyanoethyl]-2-(trifluoromethyl)benzamide] |  | ≥ 70 | 42 to 44 | 
CC(Cc1ncc(C#CCO)cc1Cl)NC(=O)c1cn(C)nc1C(F)F (stereo not shown) [8-025] |  |  |  | pest or weed control at 100 ppm [5]: ≥ 70%
CC(NC(=O)c1cccnc1C(F)F)C(SCC(F)(F)F)c1ncc(C#CC2CC2)cc1Cl (stereo not shown) [3-033a] | ≥ 70 | ≥ 70 | 72 to 74 | pest or weed control at 500 µg/mL [1]: ≥ 70%; pest or weed control at 500 µg/mL [6]: ≥ 70%
Cn1cc(C(=O)N(C(=O)OC(C)(C)C)C2CC2c2ncc(C#CC3CC3)cc2Cl)c(C(F)F)n1 (stereo not shown) [12-002, tert-butyl N-[2-[3-chloro-5-(cyclopropylethynyl)pyridin-2-yl]cyclopropyl]-N-[3-difluoromethyl-1-methyl-1H-pyrazole-4-carbonyl]carbamate] | ≥ 70 |  | 110 to 112 | 
Cn1cc(C(=O)NC2CC2c2ncc(C#CC3CC3)cc2Cl)c(C(F)F)n1 (stereo not shown) [8-033, N-[2-[3-chloro-5-(cyclopropylethynyl)pyridin-2-yl]cyclopropyl]-3-difluoromethyl-1-methyl-1H-pyrazole-4-carboxamide] | ≥ 70 |  | 176 to 178 | pest or weed control at 500 µg/mL (Botrytis cinerea [7]): ≥ 70%; pest or weed control at 500 µg/mL (Sclerotinia sclerotiorum): ≥ 70%; pest or weed control at 500 µg/mL (Puccinia recondita): ≥ 70%; inhibition of growth at 100 µg/mL (Asperaillus niger): ≥ 50%
COC(c1ncc(C#CC2CC2)cc1Cl)C(C)NC(=O)c1sc(C)nc1C(F)F (stereo not shown) [9-006b] |  |  |  | pest or weed control at 500 µg/mL (Puccinia recondita): ≥ 70%

— patent US10029986B2, “Alkynyl pyridine-substituted amide compound and pesticide” (NISSAN CHEMICAL INDUSTRIES, LTD., priority 2014, dated 2018)
